# Target: Monocarboxylate transporter 1 (Homo sapiens) (UniProt P53985)
# Experiment: TP_TRANSPORTER: uptake in Xenopus laevis oocytes
# Details: Oocyte
# Chain of Monocarboxylate transporter 1 (Homo sapiens) (P53985 whole entry, looked up): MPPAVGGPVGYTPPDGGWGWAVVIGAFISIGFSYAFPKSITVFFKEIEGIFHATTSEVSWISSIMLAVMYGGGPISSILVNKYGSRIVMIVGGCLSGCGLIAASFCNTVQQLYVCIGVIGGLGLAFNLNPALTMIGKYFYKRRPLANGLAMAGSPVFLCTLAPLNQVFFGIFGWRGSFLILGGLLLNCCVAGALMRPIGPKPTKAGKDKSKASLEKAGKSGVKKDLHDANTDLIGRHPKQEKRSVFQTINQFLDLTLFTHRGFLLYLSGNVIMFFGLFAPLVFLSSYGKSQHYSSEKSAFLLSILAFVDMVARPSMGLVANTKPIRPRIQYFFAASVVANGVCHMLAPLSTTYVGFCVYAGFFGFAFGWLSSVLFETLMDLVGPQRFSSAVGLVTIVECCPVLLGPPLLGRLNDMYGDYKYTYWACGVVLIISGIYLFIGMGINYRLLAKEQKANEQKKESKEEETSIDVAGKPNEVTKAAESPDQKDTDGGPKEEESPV
smiles,measurement,value
CC(C)[C@H]1CC[C@H](C(=O)N[C@H](Cc2ccccc2)C(=O)O)CC1,Activity,is not a substrate [-]

# Reference: ChEMBL document CHEMBL2074490, “Transport and uptake of nateglinide in Caco-2 cells and its inhibitory effect on human monocarboxylate transporter MCT1” (Br J Pharmacol, 2002)
